Experimental data reported in ChEMBL document CHEMBL1201862, “PubChem BioAssay data set” (2004).
Calls of active or inactive are those of the source. Rule as the data show it, for most assays here: actives have a measured EC50 and inactives only a lower limit.

How the values were obtained:
[1] = viability of uninfected HEp-2 cells – cell-based, HTS, cytotoxicity control for RSV inhibitor project, dose response (AID 2410); format: functional; details: human respiratory syncytial virus
[2] = system: Streptococcus sp. 'group A'; assay: Streptococcus pyogenes SK(-)GAS viability under kanamycin – luminescence, BacTiterGlo, confirmation, counter-screen for streptokinase expression inhibitor project, dose response (AID 1900); format: functional, organism-based
Streptococcus = assay: GAS UMAA2166 growth inhibition – luminescence, BacTiterGlo, counter-screen for streptokinase expression inhibitor project, dose response (AID 1915); format: functional, organism-based;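 also: potency for reduction of bacterial viability or growth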
Streptokinase A = biological target: T1, Streptokinase A (Streptococcus pyogenes serotype M1, UniProt P10520); assay: viability-normalized secreted streptokinase activity reduction – plasminogen activation absorbance, OD405, dose response (AID 1914); format: functional, Streptococcus pyogenes M1 GAS;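 also: secreted streptokinase activity via plasminogen activation per viability signal from cell pellet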
T1 sequence (P10520 whole entry): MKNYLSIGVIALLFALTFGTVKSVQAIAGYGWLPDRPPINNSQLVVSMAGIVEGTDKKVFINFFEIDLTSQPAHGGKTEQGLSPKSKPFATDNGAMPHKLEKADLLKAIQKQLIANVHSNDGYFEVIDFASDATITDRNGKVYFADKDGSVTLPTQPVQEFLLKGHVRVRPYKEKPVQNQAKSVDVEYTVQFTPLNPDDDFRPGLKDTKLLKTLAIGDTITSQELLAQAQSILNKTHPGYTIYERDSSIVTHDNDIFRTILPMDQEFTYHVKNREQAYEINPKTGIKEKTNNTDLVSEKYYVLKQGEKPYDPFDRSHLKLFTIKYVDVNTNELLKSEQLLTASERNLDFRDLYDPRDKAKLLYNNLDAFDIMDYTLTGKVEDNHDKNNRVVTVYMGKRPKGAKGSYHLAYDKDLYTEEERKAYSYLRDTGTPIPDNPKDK

[3] = NIH3T3 cell viability loss – ATP luminescence, mouse fibroblasts, counter-screen, dose response (AID 2010); format: functional, cell-based;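 also: cells exposed to compound for about 90 hours before reading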
[4] = Trypanosoma cruzi growth suppression in host cells – NIH3T3 host cells, beta-gal luminescence, confirmation (AID 2044); format: functional, cell-based;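 also: intracellular parasites grown in NIH/3T3 mouse fibroblasts as host cells; luminescent beta-galactosidase reporter signal from transgenic T. cruzi replicating inside host cells; inhibitors lower the luminescence signal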
Protein RecA = biological target: T2, Protein RecA (Mycobacterium tuberculosis, UniProt P9WHJ3); assay: Fluorescence Cell-Free Homogeneous Dose Retest to Identify Inhibitors of RecA-Intein Splicing Activity. [Related pubchem assays (depositor defined):AID2097, AID2223, AID489010, AID492950]; format: functional
T2 sequence (P9WHJ3 whole entry): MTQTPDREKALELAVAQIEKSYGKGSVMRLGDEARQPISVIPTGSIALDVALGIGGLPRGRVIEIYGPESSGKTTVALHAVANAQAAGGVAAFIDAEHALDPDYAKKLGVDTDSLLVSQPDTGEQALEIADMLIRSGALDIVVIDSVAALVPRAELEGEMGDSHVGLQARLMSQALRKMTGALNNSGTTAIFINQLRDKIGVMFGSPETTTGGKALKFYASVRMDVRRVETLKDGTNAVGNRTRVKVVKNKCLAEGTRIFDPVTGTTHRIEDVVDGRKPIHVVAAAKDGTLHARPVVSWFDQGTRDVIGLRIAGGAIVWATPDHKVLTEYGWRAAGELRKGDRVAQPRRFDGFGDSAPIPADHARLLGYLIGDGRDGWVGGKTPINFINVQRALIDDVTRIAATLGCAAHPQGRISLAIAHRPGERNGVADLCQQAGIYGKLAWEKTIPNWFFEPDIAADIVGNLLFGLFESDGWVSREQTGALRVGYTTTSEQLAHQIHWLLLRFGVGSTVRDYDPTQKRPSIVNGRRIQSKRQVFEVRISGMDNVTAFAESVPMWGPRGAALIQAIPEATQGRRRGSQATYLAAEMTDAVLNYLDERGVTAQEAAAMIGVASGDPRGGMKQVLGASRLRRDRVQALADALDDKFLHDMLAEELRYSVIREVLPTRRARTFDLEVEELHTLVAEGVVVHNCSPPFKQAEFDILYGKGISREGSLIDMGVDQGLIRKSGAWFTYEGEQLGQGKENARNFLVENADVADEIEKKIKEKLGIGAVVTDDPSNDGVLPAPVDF

[5] = biological target: T3, Replicative DNA helicase DnaB (Mycobacterium tuberculosis, UniProt P9WMR3); assay: DnaB intein splicing inhibitors, dose response, biochemical, cell-free fluorescence (AID 449749); format: functional
T3 sequence (P9WMR3 whole entry): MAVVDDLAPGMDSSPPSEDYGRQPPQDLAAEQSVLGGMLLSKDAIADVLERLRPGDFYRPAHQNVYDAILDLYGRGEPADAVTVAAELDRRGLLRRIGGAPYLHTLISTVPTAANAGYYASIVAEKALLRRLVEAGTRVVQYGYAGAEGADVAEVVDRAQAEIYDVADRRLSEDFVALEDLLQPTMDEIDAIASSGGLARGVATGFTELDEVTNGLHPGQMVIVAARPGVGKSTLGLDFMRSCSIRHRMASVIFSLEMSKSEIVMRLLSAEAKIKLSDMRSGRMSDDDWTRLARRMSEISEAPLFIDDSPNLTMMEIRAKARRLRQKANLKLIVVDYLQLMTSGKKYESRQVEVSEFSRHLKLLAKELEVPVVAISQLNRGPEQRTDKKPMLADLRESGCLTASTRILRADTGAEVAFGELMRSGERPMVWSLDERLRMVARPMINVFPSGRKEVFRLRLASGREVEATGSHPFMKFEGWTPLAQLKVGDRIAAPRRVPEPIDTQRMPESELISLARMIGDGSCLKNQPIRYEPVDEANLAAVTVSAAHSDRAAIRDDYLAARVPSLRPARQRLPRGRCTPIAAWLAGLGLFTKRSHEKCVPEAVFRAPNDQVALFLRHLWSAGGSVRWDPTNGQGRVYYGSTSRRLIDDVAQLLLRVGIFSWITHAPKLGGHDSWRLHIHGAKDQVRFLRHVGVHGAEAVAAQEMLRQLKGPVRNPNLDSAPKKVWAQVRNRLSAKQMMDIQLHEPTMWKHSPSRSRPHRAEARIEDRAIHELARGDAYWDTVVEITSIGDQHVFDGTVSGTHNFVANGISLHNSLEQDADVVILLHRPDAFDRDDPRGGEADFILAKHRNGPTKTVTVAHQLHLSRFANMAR

Compound | CC50 [1] | EC50 [2] | EC50 (Streptococcus) | EC50 (Streptokinase A) | EC50 (Protein RecA) | AC50 [5] | further results
Cc1c(C(=O)N2CCc3ccccc3C2)sc2nc(-c3ccccc3)cn12 | 30.3 µM (active) | – | – | – | – | – | –
COc1cccc(N=Nc2c(N)nn3c(O)cc(-c4ccccc4)nc23)c1 | – | 2.27 µM (active) | 31.3 µM (active) | > 150 µM (not active) | – | – | –
Cc1ccc(N2CCN(C(=O)C3CCCN(c4ncnc5c4nc4n5CCCCC4)C3)CC2)c(C)c1 (stereo unspecified) | 9.35 µM (active) | – | – | – | – | – | –
CC(C)(C)NC(=O)C1CC2CCCCC2CN1 (stereo unspecified) | – | > 150 µM (not active) | > 150 µM (not active) | > 150 µM (not active) | – | – | –
COc1cc(/C=N/NC(=O)c2nnn(-c3nonc3N)c2C(C)C)ccc1OCc1ccccc1 | 14 µM (active) | – | – | – | – | – | –
COc1ccccc1NC(=O)CSc1nc2nnc(C)c-2c(N)n1-c1ccccc1Cl | 16.8 µM (active) | – | – | – | – | – | –
CCOC(=O)c1cc2c(=O)n3ccccc3nc2n(CCOC)/c1=N/C(=O)c1c(-c2c(F)cccc2Cl)noc1C | 5.3 µM (active) | – | – | – | – | – | –
N#Cc1ccc(C(=O)Nc2nc(SCc3ccc(Cl)cc3)n[nH]2)cc1 | – | 1.97 µM (active) | > 150 µM (not active) | > 150 µM (not active) | – | – | –
CC1CCCCN1c1nc(-c2ccncc2)nc2ccccc12 (stereo unspecified) | 44.4 µM (active) | – | – | – | – | – | EC50 [3]: > 30 µM (not active); EC50 [4]: 0.576 µM (active)
COc1ccc(S(=O)(=O)N/N=C(/C)c2ccncc2)cc1 | – | > 150 µM (not active) | > 150 µM (not active) | > 150 µM (not active) | – | – | –
N#Cc1cn(CCOc2ccc(F)cc2)c2ccccc12 | 14.1 µM (active) | – | – | – | – | – | –
Cc1nc2ccccc2c2c1C(=O)N(Cc1cccnc1)C2=O | – | – | – | – | 1.02 µM (active) | 32.8 µM (active) | –
CC1(C)Cc2ccccc2-c2nnc(S)n21 | 31.5 µM (active) | – | – | – | – | – | –
COc1ccccc1-c1cc(=O)c2c(O)ccc([N+](=O)[O-])c2o1 | – | 1.4 µM (active) | 10.4 µM (active) | > 150 µM (not active) | – | – | –
O=C(Nc1nc2ccccc2n1CCOc1ccccc1)c1ccco1 | – | 4.16 µM (active) | 9.64 µM (active) | > 150 µM (not active) | – | – | –
CC(C)Nc1nc(Oc2cccc(Cl)c2Cl)cc(C(F)(F)F)n1 | – | 6.13 µM (active) | 8.83 µM (active) | > 150 µM (not active) | – | – | –
O=C(NCC1(N2CCCCC2)CCCCC1)c1cccc(NS(=O)(=O)c2ccccc2)c1 | – | > 150 µM (not active) | > 150 µM (not active) | > 150 µM (not active) | – | – | –
N#CC1=C(N)Oc2[nH]nc(-c3cccs3)c2C1c1ccco1 (stereo unspecified) | – | – | – | – | 7.2 µM (active) | 8.22 µM (active) | –
CCOC(=O)c1[nH]c2ccc(OC)cc2c1C(SCC(=O)O)c1ccc(C(F)(F)F)cc1 (stereo unspecified) | 21.1 µM (active) | – | – | – | – | – | –
Cc1ccc(Oc2ccc3c(c2)C(=O)N(c2cccc4cccnc24)C3=O)cc1 | – | 25.6 µM (active) | > 150 µM (not active) | 25.3 µM (active) | – | – | –

Compound | CC50 [1] | EC50 [2] | EC50 (Streptococcus) | EC50 (Streptokinase A) | EC50 (Protein RecA) | AC50 [5] | further results
COc1ccc(NC(=O)c2cccc(N3C(=O)C4C5C=CC(C5)C4C3=O)c2)cc1Cl (stereo unspecified) | – | – | – | – | 18.5 µM (active) | > 380 µM (inactive) | –
COc1ccc(-c2ccc(-c3noc(-c4ccccc4)n3)c(OC)n2)cc1 | 36.4 µM (active) | – | – | – | – | – | –
O=C(N/N=C/c1nn(-c2ccccc2)cc1-c1ccc(Cl)cc1)c1ccncc1 | 10.1 µM (active) | – | – | – | – | – | –
Cc1cc(C)c(OCC(=O)N2CCN(c3ncc(C(F)(F)F)cc3Cl)CC2)c(C)c1 | – | 12.8 µM (active) | 23.8 µM (active) | 7.69 µM (active) | – | – | –
O=C(Nc1ccc(C(=O)NCc2ccc(F)cc2)cc1)C1=CSCCO1 | – | > 150 µM (not active) | > 150 µM (not active) | > 150 µM (not active) | – | – | –
CCS(=O)(=O)N1Cc2ccccc2CC1C(=O)Nc1nnc(SCc2ccc(C#N)cc2)s1 (stereo unspecified) | – | 16.1 µM (active) | 94.3 µM (active) | > 150 µM (not active) | – | – | –
O=C(Nc1ccccc1)c1ccc2c(c1)CCN2S(=O)(=O)c1ccccc1 | 16 µM (active) | – | – | – | – | – | –
CC(C)(C)c1ccc(C(=O)Cn2cnnc2C#N)cc1 | – | – | – | – | 20 µM (active) | 48.9 µM (active) | –
N#C/C(=C/c1ccncc1)c1nc2ccccc2s1 | – | – | – | – | 1.67 µM (active) | > 120 µM (inactive) | –
CC(C)Cc1nnc(NC(=O)CCC(=O)N2CCN(c3ccccc3)CC2)s1 | – | > 150 µM (not active) | > 150 µM (not active) | > 150 µM (not active) | – | – | –
O=S(=O)(NCCSCc1c(Cl)cccc1Cl)c1ccc2c(c1)OCCO2 | – | 11.6 µM (active) | 24.5 µM (active) | > 150 µM (not active) | – | – | –
COc1ccc(C2C(C#N)=C(N)Oc3c2c(C)nn3-c2ccccc2)cc1Cn1nc(C)c([N+](=O)[O-])c1C (stereo unspecified) | – | – | – | – | 10.5 µM (active) | 2.95 µM (active) | –
COCc1n[nH]c2c1C(c1cccc(OC)c1)C(C#N)=C(N)O2 (stereo unspecified) | – | – | – | – | 27 µM (active) | 40 µM (active) | –
CS(=O)(=O)N1CCC(Oc2ccccc2C(=O)N2CCCCC2CO)CC1 (stereo unspecified) | – | – | – | – | > 380 µM (inactive) | > 380 µM (inactive) | –
CCn1c2ccccc2c2cc(NC(=O)c3ccc(Br)o3)ccc21 | 27.8 µM (active) | – | – | – | – | – | –
C/C(CC(=O)Nc1cc(C)ccn1)=N\NC(=O)c1ccc(C)cc1 | – | – | – | – | 8.13 µM (active) | 24.4 µM (active) | –
N#CC1=C(N)C(C#N)(C#N)[C@H](c2c(F)cccc2F)[C@H]2CC3(CC=C12)OCCO3 | – | – | – | – | 22.2 µM (active) | > 380 µM (inactive) | –
COC(=O)C1=NN(C(C)=O)C2(CC(=O)N(c3cc(C)cc(C)c3)C2=O)C1 (stereo unspecified) | – | – | – | – | > 380 µM (inactive) | > 380 µM (inactive) | –
Cc1sc(NC(=O)CSC2=NCCS2)nc1-c1ccccc1 | – | – | – | – | 4.25 µM (active) | 12.7 µM (active) | –
